Patent publication US9987379B2, “Molecular probes for imaging of myelin” (Case Western Reserve University, priority 2008, dated 2018)
“Also recorded” adds a separate entry of the source.

How the values were obtained:
[1] = system: myelin in corpus callosum; assay: In vitro CMC tissue staining of mouse brain sections (wild-type and Plp-Akt-DD); format: binding
Method: Free floating sections were incubated in 1% H2O2/Triton-100 for 10 min, then incubated in a solution of test compounds (100 μM) in 1% DMSO/PBS for 30 min at room temperature. The sections were washed three times with PBS before cover-slipping with fluorescence mounting medium (Vectashield, Vector laboratories). […] The fluorescent nature of these coumarin derivatives allows for staining of mouse brain tissue sections in a way similar to other conventional myelin stains. The tissue staining represents a direct approach to evaluate the binding specificity of the test compounds for myelin sheaths. The myelinated corpus callosum region was then examined by fluorescent microscopy. […] For correlation, the MBP immunostaining was also conducted in adjacent sections (FIG. 10E).

[2] = system: myelin sheaths of the corpus callosum and cerebellum; assay: In situ CMC staining of myelin after i.v. injection; format: in vivo, mouse; settings: 25 mg/kg tail vein, 1 hr post injection, wild-type and Plp-Akt-DD mice
Method: In this experiment, 25 mg/kg of CMC was administered through i.v. injection in the tail vein of 2-month old wild-type mice and Plp-Akt-DD mice Animals were sacrificed at 1 hr after injection through heart puncture. The brains were removed and fixed in 4% PFA. The brains were then sectioned and fluorescent images were directly acquired on a Zeiss Axiovert 200M inverted microscope (2.5× objective) with a AxioCam digital camera (Carl Zeiss Microlmagibg, Inc, Thornwood, N.Y.).
Following our in vitro studies, we investigated the ability of CMC to monitor myelin contents ex vivo in the mouse brain. A dose of 0.5 mg CMC (25 mg/kg) was injected via the tail vein into wild-type mice and Plp-Akt-DD mice. One hr postinjection, mice were perfused and brains were removed and sectioned as described above. CMC staining of myelin was then directly examined under fluorescent microscopy.

Log P of CMC = format: physicochemical; settings: method not stated
[3] = Stability of [125I]9 monitored by HPLC; format: physicochemical
From the text: The radiochemical identity of [^125I]9 was verified by co-injection with cold standard Compound 9. Following HPLC purification, [^125I]9 was obtained in 70% radiochemical yield with a radiochemical purity of >98% and a specific activity of 80 TBq/mmol As monitored by HPLC, [^125I]9 was found stable to be kept at room temperature for up to 8 hrs and in the refrigerator for up to 2 months.

[4] = Octanol-water partition coefficient measurement; format: physicochemical
From the text: The partition coefficient (PC) is an important parameter of brain permeability. PC values ranging 1.0˜3.5 often show good initial brain entry following i.v. injection (Wu, C.; Pike, V. W.; Wang, Y. Amyloid imaging: from benchtop to bedside. Curr Top Dev Biol 2005, 70, 171-213; Levin, V. A. Relationship of octanol/water partition coefficient and molecular weight to rat brain capillary permeability. J Med Chem 1980, 23, 682-684; Dishino, D. D.; Welch, M. J.; Kilbourn, M. R.; Raichle, M. E. Relationship between lipophilicity and brain extraction of C-11-labeled radiopharmaceuticals. J Nucl Med 1983, 24, 1030-1038. For this reason, we radioiodinated Compound 9 and quantitatively determined the lipophilicity of [^125I]9. Based on the conventional octanol-water partition measurement, the log Poct of [^125I]9 was determined as 2.5±0.1, which falls in the range for optimal brain entry.
Partition coefficients (PC) were measured by mixing the radioligands with 3 g (3.65 mL) 1-octanol and 3 g (3.0 mL) buffer (pH 7.40, 0.1 M phosphate) in a test tube. The test tube was vortexed for 3 mM at room temperature and then centrifuged (3500 rpm, 5 mM) 1 ml of samples from the 1-octanol and buffer layers were assayed for radioactivity content in a well γcounter. The partition coefficient was determined by calculating the ratio of cpm/g of 1-octanol to that of the buffer. […]

[5] = system: myelinated corpus callosum and cerebellum; assay: In vitro autoradiography of mouse brain sections; format: binding; settings: sagittal mouse brain sections, 1 hr incubation
Method: To further evaluate the binding specificity of [^125I]9 to myelin sheaths in the brain, in vitro autoradiography was carried out in mice.
Mouse brain sections were incubated in [^125I]9 (20% Ethanol, 4,380,000 cpm/16 ml) for 1 hr. The slides were quickly washed with PBS buffer (10 mM, pH 7.0) 3 times, saturated Li2CO3 in 40% ethanol (2×3 mM), 40% ethanol (2 mM) and H2O (30 sec). After drying by air, the slides were put in a cassette and exposed to film for 44 hrs to obtain images.

[6] = Brain uptake / permeability across the blood-brain barrier in mice; format: in vivo, mouse
Method: Encouraged by the aforementioned studies, we further evaluated the permeability of [^125I]9 across the blood brain barrier. Following bolus tail vein injection of [^125I]9 (0.2 ml, 0.185 MBq), the radioactivity concentration of [^125I]9 in the brain was determined at 2, 30, and 60 min post injection. […] The initial brain entry was 2.29±0.66% ID/g at 2 min post injection. At 30 min post injection, the brain radioactivity concentration reached its peak level (2.65±0.27% ID/g). […] Retention of [^125I]9 at later time points was likely due to binding to myelin membranes as indicated by aforementioned in vitro and in situ staining studies.
While under anesthesia, 0.1 mL of a saline solution (consisting of saline (2 mL, 9 mg/mL), propylene glycol (2 mL), ethanol (0.7 mL) and HCl (0.3 mL, […]))^25 containing 5 μCi of radioactive tracer, was injected into the tail veins of mice (Swiss-Webster, 2 month old, 2 mice per group). The mice were sacrificed by heart puncture at 2 mM, 30 mM, 60 min and 120 mM post injection under anesthesia. Brains were rapidly removed and weighed, and the brain uptake was expressed as percentage of injection dose per gram organ (% ID/g), which was calculated by a ratio of per gram tissue counts to counts of 1% of the initial dose (100 times diluted aliquots of the injected radioligand) measured at the same time.

logP (Log P of CMC)	SMILES	staining contrast among the coumarin derivatives screened ([1]; 100 uM, mouse brain sections)	in vitro staining of myelin ([1]; 100 uM, wild-type mouse brain sections)	fluorescent intensity in Plp-Akt-DD mouse brain relative to wild-type mouse brain ([1]; corpus callosum, hypermyelinated Plp-Akt-DD vs wild-type)	brain entry and in situ labeling of myelin [2]	time found stable in the refrigerator ([3]; in the refrigerator)	time found stable at room temperature ([3]; room temperature)	log Poct [4]	autoradiographic labeling of brain sections [5]	brain radioactivity concentration ([6]; 2 min post tail vein injection)	brain radioactivity concentration ([6]; 30 min post tail vein injection)	brain radioactivity concentration ([6]; 60 min post tail vein injection)	brain radioactivity concentration ([6]; 120 min post tail vein injection)
2.68	Nc1ccc(-c2cc3ccccc3oc2=O)cc1 [CMC, 3-(4-aminophenyl)-2H-chromen-2-one]	highest contrast	selectively stained intact myelin tracks	1.27 fold	highly permeable across the BBB and selectively localizes in myelinated regions; also recorded: entered the brain and selectively labeled myelin sheaths of the corpus callosum and cerebellum								
	Nc1ccc(C=Cc2ccc([125I])cc2)cc1 [[^125I]9, 4-[2-(4-[^125I]Iodo-phenyl)-vinyl]-phenylamine]					up to 2 months	up to 8 hrs	2.5±0.1	distinct labeling of myelinated regions	2.29±0.66 % ID/g	2.65±0.27 % ID/g	2.05 ± 0.13 % ID/g	1.12±0.23 % ID/g
